Assay results from PMC11596557, “Exiguolysin, a Novel Thermolysin (M4) Peptidase from Exiguobacterium oxidotolerans” (Microorganisms, 2024).

What was measured:
[1] = system: E. oxidotolerans protease; assay: Azocasein hydrolysis with class-specific protease inhibitors (culture supernatant); type: biochemical, Exiguobacterium oxidotolerans; conditions: 1,10-phenanthroline 2 mM, PMSF 0.2 mM, E-64 10 μM; 37 °C, 1 h; crude preparation
Protocol: Peptidase activity was quantified using azocasein hydrolysis. Conditioned media (100 µL) was mixed with 1% (w/v) azocasein in PBS and incubated at […] for 1 h. The reaction was quenched by adding 400 µL of 5% trifluoroacetic acid (TFA), and the mixture was centrifuged at 13,000 rpm for 10 min. Absorbance of the supernatant was measured at 440 nm to determine protease activity. Units of protease activity were calculated as previously described by Loomes et al..
Overnight cultures were centrifuged (4000 rpm, 4 °C, 12 min), and the supernatant was filtered through a 0.45 µm nitrocellulose membrane. Protease activity was evaluated by incubating 100 µL of supernatant with 1% azocasein at 37 °C for 1 h. The reaction was quenched with 400 µL of TFA, and absorbance was measured at 440 nm. Protease mechanistic class was determined by incubating the supernatant with 2 mM 1,10-phenanthroline (metalloprotease inhibitor), 0.2 mM PMSF (serine protease inhibitor), and 10 µM E-64 (cysteine protease inhibitor) prior to azocasein hydrolysis.

[2] = system: E. oxidotolerans peptidase; assay: Casein zymography with and without 1,10-phenanthroline; type: biochemical, Exiguobacterium oxidotolerans; conditions: crude and purified samples; 1,10-phenanthroline in renaturing buffer
Protocol: Casein zymography was used to visualize protease activity in fractions collected from the Akta Prime HIC system. Samples were prepared in Laemmli buffer and run on a Tris-Glycine casein zymogram gel using the XCell SureLock™ Mini-Cell system. Following electrophoresis, gels were sectioned and renatured in Novex zyogram renaturing buffer with and without 1,10 phenanthroline (5 mM) to assess metalloprotease activity. Gels were stained, destained, and analyzed for caseinolytic peptidase activity.

[3] = system: E. oxidotolerans peptidase; assay: Fluorogenic substrate hydrolysis progress curves with class-specific inhibitors (purified enzyme); type: biochemical, Exiguobacterium oxidotolerans; conditions: 1,10 phenanthroline 2 mM, PMSF 0.2 mM, E-64 10 μM
Protocol: Peptidase activity was confirmed using the matrix metalloproteinase (MMP) substrate Mca-Lys-Pro-Leu-Gly-Leu-Dap-(Dnp)-Ala-Arg-NH2 (Peptides International). Class-specific inhibitors were used to determine the catalytic mechanism, including E-64 (10 μM) for cysteine proteases, 1,10 phenanthroline (2 mM) for metalloproteases, and PMSF (0.2 mM) for serine proteases. These concentrations were selected based on established guidelines for effective inhibition. Fluorescence was monitored at excitation 330 nm and emission 460 nm over a 45 min period as described previously.
Time-dependent hydrolysis of the fluorogenic substrate Mca-Lys-Pro-Leu-Gly-Leu-Dap-(Dnp)-Ala-Arg-NH2 by exiguolysin was measured in 96-well plates (total volume 100 µL) with fluorescence was measured every 30 s for 45 min using a plate reader (excitation at 330 nm and emission at 460 nm). Progress curves were generated, and kinetic parameters were determined using non-linear regression.

[4] = molecular target: thermolysin-like protease of E. oxidotolerans (exiguolysin) (Exiguobacterium oxidotolerans, UniProt A0A653I866); assay: Inhibitor screening and Ki determination, fluorogenic MMP substrate assay; type: biochemical; conditions: fluorogenic substrate hydrolysis, 37 °C; Morrison equation for tight-binding inhibitors; Km 14.20 µM; read-out: True Ki
Chain of thermolysin-like protease of E. oxidotolerans (exiguolysin) (A0A653I866 entry or part of it): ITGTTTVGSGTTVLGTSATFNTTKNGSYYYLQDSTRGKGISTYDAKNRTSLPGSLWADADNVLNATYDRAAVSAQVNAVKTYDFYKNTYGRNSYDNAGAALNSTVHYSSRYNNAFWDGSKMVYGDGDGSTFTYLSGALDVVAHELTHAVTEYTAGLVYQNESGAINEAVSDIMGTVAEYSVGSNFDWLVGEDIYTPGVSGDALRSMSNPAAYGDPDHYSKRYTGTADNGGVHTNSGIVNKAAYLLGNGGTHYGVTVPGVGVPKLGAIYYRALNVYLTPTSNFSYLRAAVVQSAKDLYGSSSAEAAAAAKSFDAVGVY
Protocol: The inhibition of protease activity was screened using a 20 × 20 library of N-alpha dipeptide mercaptoamide inhibitors as previously described by Cathcart et al., and the half-maximal inhibitory constant (Ki) values were determined. In order to determine Michaelis–Menten constant, Km, of the fluorogenic substrate, exiguolysin (previously purified by HIC, final concentration 5 units/well) was added to wells of a 96-well black microtitre plate (Nunc); the volume was adjusted to 75 µL in assay buffer (25 mM Tris, 2.5 mM CaCl2, pH 7.0), and fluorogenic substrate (25 µL) was added at concentrations of 0, 1, 10, 25, 50, 100 and 200 µM. Time-dependent hydrolysis of the fluorogenic substrate was measured (excitation/emission […] nm) every 30 s for 30 min. The Km is determined using the Michealis–Menten equation, by plotting the rate of substrate hydrolysis against substrate concentration.
Initially, each inhibitor was tested at a final concentration of 100 µM in a broad-spectrum screen, employing a standard fluorogenic substrate assay using Mca-Lys-Pro-Leu-Gly-Leu-Dap-(Dnp)-Ala-Arg-NH2. Enzyme reactions were carried out in a 96-well black plate at 37 °C, and fluorescence was monitored as described above.

PAR-1 = molecular target: T1, PAR-1 (Homo sapiens, UniProt P25116); assay: Calcium mobilization assay in PC-3 cells (Fluo-4 AM); type: cell-based; conditions: protease pre-incubated with inhibitor, thrombin-induced activation
T1 construct: calcium mobilization in PC-3 cells (expressing PAR1); endogenous in cells; host or cells: PC-3
T1 sequence (P25116 22-425): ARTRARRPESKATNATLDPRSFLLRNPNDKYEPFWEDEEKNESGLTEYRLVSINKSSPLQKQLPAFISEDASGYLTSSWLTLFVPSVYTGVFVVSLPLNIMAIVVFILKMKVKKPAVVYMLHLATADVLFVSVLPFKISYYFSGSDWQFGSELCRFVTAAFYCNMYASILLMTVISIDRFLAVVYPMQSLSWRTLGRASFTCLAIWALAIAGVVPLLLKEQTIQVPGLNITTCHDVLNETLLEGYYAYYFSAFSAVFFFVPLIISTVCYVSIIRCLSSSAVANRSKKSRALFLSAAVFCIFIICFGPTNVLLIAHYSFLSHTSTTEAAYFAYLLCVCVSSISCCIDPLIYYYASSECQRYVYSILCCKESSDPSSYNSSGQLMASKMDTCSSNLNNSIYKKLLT
Protocol: Calcium mobilization in PC-3 and HCT15 cells was assessed using the fluorescent calcium indicator Fluo-4 AM (ThermoFisher, UK). Cells were cultured in RPMI-1640 medium with 10% fetal bovine serum and antibiotics, maintained at 37 °C with 5% CO2. Cells were seeded in 96-well plates and incubated with 5 μM Fluo-4 AM for 30 min at 37 °C. After washing, cells were treated with 5 units/well of thermolysin-like protease or the agonists TFLLRN (PAR-1) and SLIGKV (PAR-2). Intracellular calcium changes were monitored using a BMG Fluostar plate reader (excitation: 494 nm, emission: 516 nm).

## c1cnc2c(c1)ccc1cccnc12 [1,10-phenanthroline]
[1]
  Inhibition of azocasein hydrolysis: significantly reduced protease activity
[2]
  Inhibition of proteolytically active bands in zymogram: inhibited
[3]
  Inhibition of hydrolysis of Mca-Lys-Pro-Leu-Gly-Leu-Dap-(Dnp)-Ala-Arg-NH2 (progress curves): significantly inhibited

## CC(C)C[C@H](NC(=O)[C@H]1O[C@@H]1C(=O)O)C(=O)NCCCCN=C(N)N [Inhibitor E-64, E-64]
[1]
  Inhibition of azocasein hydrolysis: partial inhibition
[3]
  Inhibition of hydrolysis of Mca-Lys-Pro-Leu-Gly-Leu-Dap-(Dnp)-Ala-Arg-NH2 (progress curves): minimal effects

## NCCCCC(NC(=O)C(CC(N)=O)NC(=O)CS)C(N)=O (stereo not drawn) [Me-Asn-Lys-NH2]
[4]
  Ki: 20.9 µM

## NC(=O)CC(NC(=O)CS)C(=O)NC(Cc1c[nH]c2ccccc12)C(N)=O (stereo not drawn) [Me-Asn-Trp-NH2]
[4]
  Ki: 4.35 µM

## NC(=O)CC(NC(=O)CS)C(=O)NC(Cc1ccc(O)cc1)C(N)=O (stereo not drawn) [Me-Asn-Tyr-NH2]
[4]
  Ki: 5.71 µM

## CCC(C)C(NC(=O)C(NC(=O)CS)C(C)CC)C(N)=O (stereo not drawn) [Me-Ile-Ile-NH2]
[4]
  Ki: 11.2 µM

## CCC(C)C(NC(=O)CS)C(=O)NC(C(N)=O)C(C)C (stereo not drawn) [Me-Ile-Val-NH2]
[4]
  Ki: 8.33 µM

## CSCCC(NC(=O)CS)C(=O)NC(Cc1ccc(O)cc1)C(N)=O (stereo not drawn) [Me-Met-Tyr-NH2, SH-CH2-CO-Met-Tyr-NH2]
[4]
  Ki: 1.95 µM

## N=C(N)NCCCC(NC(=O)C1CCCN1C(=O)CS)C(N)=O (stereo not drawn) [Me-Pro-Arg-NH2, SH-CH2-CO-Pro-Arg-NH2]
PAR-1
  Reversal of the protease's PAR-1 disarming effect: reversed
[4]
  Ki: 3.97 µM

## NC(=O)C(Cc1ccccc1)NC(=O)C(Cc1ccc(O)cc1)NC(=O)CS (stereo not drawn) [Me-Tyr-Phe-NH2]
[4]
  Ki: 5.52 µM

## CC(C)C(NC(=O)C(NC(=O)CS)C(C)C)C(N)=O (stereo not drawn) [Me-Val-Val-NH2]
[4]
  Ki: 3.21 µM

## O=S(=O)(F)Cc1ccccc1 [PMSF]
[1]
  Inhibition of azocasein hydrolysis: Slight inhibition
[3]
  Inhibition of hydrolysis of Mca-Lys-Pro-Leu-Gly-Leu-Dap-(Dnp)-Ala-Arg-NH2 (progress curves): minimal effects
